Tests used:
rat colon cells = conditions: isolated vascularly perfused rat colon; cited from earlier work
colonic mucin production = conditions: about 0.1 millimolar sodium butyrate; tissue harvested from colonic cancer patients; cited from earlier work
[1] = test system: mucin content of tear film; assay: Stimulation of mucin production: tear film mucin content in patients with mucin deficiency; type: in vivo, human; conditions: 0.5 wt. % solution in artificial tear solution, four-times a day for four days; control receives artificial tear solution
Method: A 0.5 wt. % solution of sodium butyrate in artificial tear solution is administered to one of a […] that suffer from mucin deficiency. The patients receiving butyrate drops belong to the study group. The patients in the control group receive artificial tear solution. Both groups receive treatment four-times a day for four days. Following treatment, tear film samples are collected and tested to quantify mucin content.

CC(=O)O [acetate]
stimulation of mucin secretion of rat colon cells (rat colon cells): can stimulate the mucin secretion

CCC(=O)O [propionate]
stimulation of mucin secretion of rat colon cells (rat colon cells): can stimulate the mucin secretion

CCCC(=O)[O-].[Na+] [sodium butyrate]
increase in colonic mucin production compared to a control group (colonic mucin production): almost five fold increase
concentration of mucin in tear film samples versus control group [1]: higher concentration of mucin

Reference: patent US20080153908A1, “Method of Treating Mucin Deficiency with an Active Pharmaceutical and Related Composition” (priority 2006, published 2008)
